What all share (experiment): biochemical
What all share (parameters): KINOMEscan competition binding panel (Eurofins DiscoverX), single concentration, percent inhibition
Settings in all cases: read-out: 15 at 1 µM % inhibition

One assay has as its target ALK (Homo sapiens, UniProt Q9UM73). The method, boiled down:
(§1)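 Values come from single-concentration (1 µM) profiling in the Eurofins DiscoverX KINOMEscan competition-binding platform, which covers over 400 kinases.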

The target of the next assay is T1, AMPK-alpha1 (Homo sapiens, UniProt Q13131).
T1 construct: gene PRKAA1
The method, boiled down:
as §1

The next assay addresses BMX (Homo sapiens, UniProt P51813). The method, boiled down: as §1
The target of a further assay is BRAF(V600E) (Homo sapiens, UniProt P15056, V600E). The method, boiled down: as §1
The next assay has as its target CSNK1A1 (Homo sapiens, UniProt P48729). The method, boiled down:
as §1

The next assay addresses T2, CTK (Homo sapiens, UniProt P42679).
T2 construct: gene MATK
The method, boiled down:
as §1

In a further assay the target is DMPK (Homo sapiens, UniProt Q09013). The method, boiled down:
as §1

Another assay deals with EGFR(L861Q) (Homo sapiens, UniProt P00533, L861Q). The method, boiled down: as §1
Another assay addresses EPHB1 (Homo sapiens, UniProt P54762). The method, boiled down: as §1
A further assay concerns the target EPHB4 (Homo sapiens, UniProt P54760). The method, boiled down: as §1
A further assay deals with T3, ERK3 (Homo sapiens, UniProt Q16659).
T3 construct: gene MAPK6
The method, boiled down:
as §1

The target of a further assay is HCK (Homo sapiens, UniProt P08631). The method, boiled down: as §1
A further assay has as its target HIPK2 (Homo sapiens, UniProt Q9H2X6). The method, boiled down:
as §1

The target of another assay is T4, JNK1 (Homo sapiens, UniProt P45983).
T4 construct: gene MAPK8
The method, boiled down: as §1

Another assay concerns the target MAPKAPK5 (Homo sapiens, UniProt Q8IW41). The method, boiled down:
as §1

A further assay concerns the target MTOR (Homo sapiens, UniProt P42345). The method, boiled down:
as §1

Another assay addresses PHKG2 (Homo sapiens, UniProt P15735). The method, boiled down: as §1
Another assay concerns the target PIK3CA(C420R) (Homo sapiens, UniProt P42336, C420R). The method, boiled down: as §1
In a further assay the target is PIK3CD (Homo sapiens, UniProt O00329). The method, boiled down:
as §1

A further assay has as its target RIPK2 (Homo sapiens, UniProt O43353). The method, boiled down: as §1
Assay [1] concerns the target T5, RPS6KA5(Kin.Dom.1-N-terminal) (Homo sapiens, UniProt O75582).
T5 construct: Kin.Dom.1-N-terminal
The method, boiled down:
as §1

For a further assay, the target named is TNK2 (Homo sapiens, UniProt Q07912). The method, boiled down:
as §1

In a further assay the target is TYRO3 (Homo sapiens, UniProt Q06418). The method, boiled down: as §1
The target in a further assay is T6, YSK4 (Homo sapiens, UniProt Q56UN5).
T6 construct: gene MAP3K19
The method, boiled down:
as §1

What is called inhibition is the percentage by which the read-out fell short of the control.

Each structure is given as a SMILES string.

Sequence of CSNK1A1 (P48729 whole entry): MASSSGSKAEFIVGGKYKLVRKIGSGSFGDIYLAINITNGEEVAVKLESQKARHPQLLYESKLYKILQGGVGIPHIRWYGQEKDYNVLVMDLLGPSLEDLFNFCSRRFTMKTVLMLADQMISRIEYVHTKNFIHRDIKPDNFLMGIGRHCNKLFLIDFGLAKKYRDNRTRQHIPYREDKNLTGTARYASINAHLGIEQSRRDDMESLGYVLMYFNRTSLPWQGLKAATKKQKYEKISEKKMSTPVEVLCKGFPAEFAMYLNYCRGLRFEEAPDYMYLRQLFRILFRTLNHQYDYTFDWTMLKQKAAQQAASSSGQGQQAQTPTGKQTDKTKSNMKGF
Sequence of DMPK (Q09013 whole entry): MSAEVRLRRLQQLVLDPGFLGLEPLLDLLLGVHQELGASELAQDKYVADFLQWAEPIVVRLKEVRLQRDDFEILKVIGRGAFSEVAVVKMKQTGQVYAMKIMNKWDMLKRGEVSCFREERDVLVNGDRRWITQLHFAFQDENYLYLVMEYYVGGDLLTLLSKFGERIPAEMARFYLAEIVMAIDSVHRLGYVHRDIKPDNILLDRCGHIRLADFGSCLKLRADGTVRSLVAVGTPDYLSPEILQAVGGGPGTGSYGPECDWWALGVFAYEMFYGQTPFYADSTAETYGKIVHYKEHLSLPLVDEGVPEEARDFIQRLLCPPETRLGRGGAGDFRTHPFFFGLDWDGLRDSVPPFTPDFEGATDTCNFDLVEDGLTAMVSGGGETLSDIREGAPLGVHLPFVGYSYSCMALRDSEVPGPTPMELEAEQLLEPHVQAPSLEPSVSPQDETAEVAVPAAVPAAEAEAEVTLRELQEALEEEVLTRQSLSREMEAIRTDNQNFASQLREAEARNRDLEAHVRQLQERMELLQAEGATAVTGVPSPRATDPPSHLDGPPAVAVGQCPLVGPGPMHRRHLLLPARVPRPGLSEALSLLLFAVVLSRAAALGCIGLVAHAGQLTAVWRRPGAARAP
T6 sequence (Q56UN5 whole entry): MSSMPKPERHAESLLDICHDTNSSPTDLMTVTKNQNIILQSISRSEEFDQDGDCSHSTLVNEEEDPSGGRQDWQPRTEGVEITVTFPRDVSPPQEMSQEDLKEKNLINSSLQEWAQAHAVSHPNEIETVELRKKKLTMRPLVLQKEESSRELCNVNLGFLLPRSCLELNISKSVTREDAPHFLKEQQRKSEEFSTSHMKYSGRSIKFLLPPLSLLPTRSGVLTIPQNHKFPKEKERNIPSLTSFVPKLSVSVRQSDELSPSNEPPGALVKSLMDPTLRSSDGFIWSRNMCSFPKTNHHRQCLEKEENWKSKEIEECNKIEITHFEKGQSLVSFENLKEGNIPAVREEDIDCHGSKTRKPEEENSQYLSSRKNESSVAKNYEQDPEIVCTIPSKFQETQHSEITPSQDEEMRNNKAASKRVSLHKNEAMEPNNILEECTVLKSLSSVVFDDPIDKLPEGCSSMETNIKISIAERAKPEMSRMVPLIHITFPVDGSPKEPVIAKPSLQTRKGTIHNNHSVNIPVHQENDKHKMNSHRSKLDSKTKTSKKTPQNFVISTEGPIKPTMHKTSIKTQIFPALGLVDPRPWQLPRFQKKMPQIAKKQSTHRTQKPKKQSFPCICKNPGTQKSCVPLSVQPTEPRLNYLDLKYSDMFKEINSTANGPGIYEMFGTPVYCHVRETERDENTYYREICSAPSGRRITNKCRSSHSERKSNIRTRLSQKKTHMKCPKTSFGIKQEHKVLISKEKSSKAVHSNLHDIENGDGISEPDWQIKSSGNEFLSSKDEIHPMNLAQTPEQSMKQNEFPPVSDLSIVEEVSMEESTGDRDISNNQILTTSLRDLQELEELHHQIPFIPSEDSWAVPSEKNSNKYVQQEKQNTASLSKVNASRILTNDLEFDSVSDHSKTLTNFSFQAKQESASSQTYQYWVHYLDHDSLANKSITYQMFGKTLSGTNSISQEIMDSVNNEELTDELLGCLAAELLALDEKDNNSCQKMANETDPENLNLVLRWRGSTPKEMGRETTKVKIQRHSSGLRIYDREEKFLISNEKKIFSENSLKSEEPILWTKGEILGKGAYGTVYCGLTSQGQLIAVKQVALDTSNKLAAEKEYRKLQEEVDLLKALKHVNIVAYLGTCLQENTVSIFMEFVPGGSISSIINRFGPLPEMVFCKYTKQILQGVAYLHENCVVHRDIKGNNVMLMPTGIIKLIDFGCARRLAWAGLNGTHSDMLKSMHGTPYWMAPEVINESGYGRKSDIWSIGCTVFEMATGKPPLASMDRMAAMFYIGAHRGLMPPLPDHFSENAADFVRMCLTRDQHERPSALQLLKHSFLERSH
Sequence of HIPK2 (Q9H2X6 whole entry): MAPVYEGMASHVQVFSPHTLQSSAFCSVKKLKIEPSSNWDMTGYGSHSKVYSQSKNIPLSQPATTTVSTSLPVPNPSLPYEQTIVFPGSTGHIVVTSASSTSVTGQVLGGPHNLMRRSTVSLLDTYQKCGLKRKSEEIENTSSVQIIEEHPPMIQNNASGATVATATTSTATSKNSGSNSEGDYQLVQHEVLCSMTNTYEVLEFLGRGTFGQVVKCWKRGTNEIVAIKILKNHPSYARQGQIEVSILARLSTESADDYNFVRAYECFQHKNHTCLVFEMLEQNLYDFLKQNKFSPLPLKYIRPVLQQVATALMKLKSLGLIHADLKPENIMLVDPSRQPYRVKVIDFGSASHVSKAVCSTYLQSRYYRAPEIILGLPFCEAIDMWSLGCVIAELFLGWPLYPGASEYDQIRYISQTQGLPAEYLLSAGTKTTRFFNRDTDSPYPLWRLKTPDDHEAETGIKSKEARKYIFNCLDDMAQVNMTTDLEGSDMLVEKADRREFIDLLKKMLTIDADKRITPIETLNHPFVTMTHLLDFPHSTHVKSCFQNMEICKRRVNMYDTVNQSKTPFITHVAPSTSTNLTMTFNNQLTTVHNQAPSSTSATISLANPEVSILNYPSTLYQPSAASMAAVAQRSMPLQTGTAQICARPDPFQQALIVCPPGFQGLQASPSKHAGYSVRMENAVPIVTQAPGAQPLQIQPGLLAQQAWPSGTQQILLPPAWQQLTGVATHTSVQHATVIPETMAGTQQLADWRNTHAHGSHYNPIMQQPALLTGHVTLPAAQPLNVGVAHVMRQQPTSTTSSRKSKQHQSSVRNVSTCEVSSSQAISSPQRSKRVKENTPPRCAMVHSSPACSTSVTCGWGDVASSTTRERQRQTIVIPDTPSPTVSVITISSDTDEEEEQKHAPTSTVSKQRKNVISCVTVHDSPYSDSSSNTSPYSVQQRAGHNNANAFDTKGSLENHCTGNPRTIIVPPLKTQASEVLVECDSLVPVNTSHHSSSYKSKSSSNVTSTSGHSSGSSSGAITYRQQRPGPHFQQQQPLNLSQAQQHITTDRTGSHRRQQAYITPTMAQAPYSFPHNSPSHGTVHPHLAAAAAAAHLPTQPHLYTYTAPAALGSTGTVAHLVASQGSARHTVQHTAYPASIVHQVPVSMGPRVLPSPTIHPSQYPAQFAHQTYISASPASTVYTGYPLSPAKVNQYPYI
Sequence of TNK2 (Q07912 whole entry): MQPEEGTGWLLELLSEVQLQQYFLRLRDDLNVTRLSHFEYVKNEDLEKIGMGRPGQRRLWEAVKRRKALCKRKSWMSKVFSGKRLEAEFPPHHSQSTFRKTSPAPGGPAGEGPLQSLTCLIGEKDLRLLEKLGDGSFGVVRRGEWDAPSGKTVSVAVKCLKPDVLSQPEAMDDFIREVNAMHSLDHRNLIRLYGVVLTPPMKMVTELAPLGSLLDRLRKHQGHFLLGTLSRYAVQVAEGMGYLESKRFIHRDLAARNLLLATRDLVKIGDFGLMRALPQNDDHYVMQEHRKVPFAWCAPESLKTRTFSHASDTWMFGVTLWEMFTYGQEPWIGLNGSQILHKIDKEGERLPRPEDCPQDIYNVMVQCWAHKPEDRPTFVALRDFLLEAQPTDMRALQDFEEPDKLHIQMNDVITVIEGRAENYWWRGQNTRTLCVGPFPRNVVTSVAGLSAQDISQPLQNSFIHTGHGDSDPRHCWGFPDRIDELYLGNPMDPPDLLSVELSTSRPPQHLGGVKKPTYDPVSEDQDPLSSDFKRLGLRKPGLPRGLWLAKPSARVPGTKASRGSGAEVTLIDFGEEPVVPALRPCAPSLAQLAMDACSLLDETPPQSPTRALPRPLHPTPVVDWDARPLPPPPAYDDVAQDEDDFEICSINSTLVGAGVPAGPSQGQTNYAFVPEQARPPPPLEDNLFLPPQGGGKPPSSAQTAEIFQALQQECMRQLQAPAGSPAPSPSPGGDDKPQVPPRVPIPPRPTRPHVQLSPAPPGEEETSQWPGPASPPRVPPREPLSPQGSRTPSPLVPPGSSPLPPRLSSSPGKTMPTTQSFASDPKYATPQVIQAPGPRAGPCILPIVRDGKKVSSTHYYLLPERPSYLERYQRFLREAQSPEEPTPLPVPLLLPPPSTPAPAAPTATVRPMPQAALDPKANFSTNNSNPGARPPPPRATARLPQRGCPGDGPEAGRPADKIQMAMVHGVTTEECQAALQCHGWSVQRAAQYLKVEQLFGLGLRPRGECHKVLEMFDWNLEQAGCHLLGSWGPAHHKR
T1 sequence (Q13131 whole entry): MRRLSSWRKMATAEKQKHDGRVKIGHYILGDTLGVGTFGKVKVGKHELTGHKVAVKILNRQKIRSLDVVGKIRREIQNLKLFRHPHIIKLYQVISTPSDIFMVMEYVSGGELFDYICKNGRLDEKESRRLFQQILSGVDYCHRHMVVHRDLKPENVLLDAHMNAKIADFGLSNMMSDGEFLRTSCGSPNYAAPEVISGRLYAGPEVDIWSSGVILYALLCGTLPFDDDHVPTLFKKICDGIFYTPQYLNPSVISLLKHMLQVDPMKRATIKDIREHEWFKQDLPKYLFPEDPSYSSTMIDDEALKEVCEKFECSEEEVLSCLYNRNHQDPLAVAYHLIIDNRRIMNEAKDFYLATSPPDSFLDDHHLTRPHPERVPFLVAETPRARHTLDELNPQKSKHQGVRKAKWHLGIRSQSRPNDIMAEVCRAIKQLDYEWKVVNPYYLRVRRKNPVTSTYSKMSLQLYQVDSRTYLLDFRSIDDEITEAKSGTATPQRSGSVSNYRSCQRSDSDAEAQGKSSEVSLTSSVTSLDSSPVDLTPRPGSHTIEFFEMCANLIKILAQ

In the case of `CNS(=O)(=O)c1ccc(N(C)C)c(Nc2nc(C)nc3cc(OC)c(OC)cc23)c1` [compound 15, 3-((6,7-dimethoxy-2-methylquinazolin-4-yl)amino)-4-(dimethylamino)-N-methylbenzenesulfonamide], the inhibition at 1 µM at ALK is 10%; on AMPK-alpha1 it was 1%; on BMX, 10%; on BRAF(V600E), 24%; at CSNK1A1 it was 0%; at CTK, 0%. For the same compound, the inhibition at 1 µM on DMPK came out at 3%; at EGFR(L861Q) it was 0%; on EPHB1, 0%; on EPHB4, 0%; at ERK3 it was 18%; on HCK, 4%. The inhibition at 1 µM was 9% at HIPK2; 14% on JNK1; 23% on MAPKAPK5; 0% at MTOR; 2% at PHKG2; 11% on PIK3CA(C420R). The inhibition at 1 µM worked out at 37% at PIK3CD; 4% on RIPK2; 0% in assay [1]; 0% on TNK2; 0% on TYRO3; 0% at YSK4.

Values taken from publication PMC7180948, “New Insights into 4-Anilinoquinazolines as Inhibitors of Cardiac Troponin I–Interacting Kinase (TNNi3K)” (Molecules, 2020).
